According to US20260266837A1, “Methods for Cancer Recurrence Detection and Treatment Thereof” (Institut Curie, priority 2022, published 2026):
One block for each compound: values may come before it.

Columns and labels:
[1] = tested on: MDA-MB-468 untreated and chemoresistant cells; assay: XTT cell cytotoxicity, IC50 to 5-FU; format: cell-based, human; details: resistant cells after over 15 weeks of 5-FU, 72 h XTT
Experimental: MDA-MB-468 untreated and chemoresistant cells were plated in 96 multi-well plates at a density of 10,000 cells per well and treated with increased concentration of 5-FU (1 μM to 0.5M) for 72 h. Cell cytotoxicity was assayed with XTT kit (Sigma, Ref: 11465015001) and IC 50 was calculated as the concentration of 5-FU that is required to obtain 50% of cell viability (Extended FIG. 2b).

MDA-MB-468 [2] = assay: Prolonged 5-FU treatment, cell proliferation and survival; format: cell-based, human
Experimental: (§1) Cell lines, culture conditions and drug treatments. MDA-MB-468 cells were cultured in DMEM (Gibco-BRL, Ref: 11966025), supplemented with 10% heat-inactivated fetal calf serum (Gibco-BRL, Ref: 10270-106). HCC38 and BT20 cell lines were cultured in RPMI 1640 (Gibco-BRL, Ref: 11875085), supplemented with 10% heat-inactivated fetal calf serum. […] Cells were treated with 5 μM of 5-FU (Sigma, Ref: F6627) alone or in combination with KDM6A/Bi or EZH2i for indicated days. For EZH2i, cells were pretreated with UNC 1999, UNC 2400 or GSK 126 for 10 days before the addition of 5-FU for an additional 21 days (FIG. 4 and Extended FIG. 8).

[3] = tested on: patient-derived xenograft (PDX) models PDX_95, PDX_39 & PDX_172 established from patients with residual TNBC; assay: Capecitabine treatment of TNBC patient-derived xenograft models; format: in vivo, mice; details: oral Capecitabine
Description: Patient samples and PDX models. Patient samples used in this study (n=9) originated from patient treated at Institut Curie with residual triple-negative breast cancers post-neoadjuvant chemotherapy, who gave informed consent for the profiling. In this study, we used three xenograft models generated from three different residual triple-negative breast cancers post-neoadjuvant chemotherapy (HBCx95 called PDX_95, HBCx39 called PDX_39 and HBCx172 called PDX_172 in the manuscript, see Extended Table2) established previously at Curie Institute with informed consent from the patient^46,47. Female Swiss nude mice were purchased from Charles River Laboratories and maintained under specific-pathogen-free conditions. Mouse care and housing were in accordance with institutional guidelines and the rules of the French Ethics Committee (project authorization no. 02163.02).
FIG. 1b: Five mice were not treated and kept as controls (termed “untreated”) and twenty-seven mice were treated orally with Capecitabine (Xeloda; Roche Laboratories) at a dose of 540 mg/kg, 5 d/week for 6 to 14 weeks. Relative tumor volumes (mm3) were measured as described previously^18. Eight mice were sacrificed after the first round of chemotherapy to study “residual” tumors (2 mice) or “persister” (6 mice) human tumor cells. […]

[4] = tested on: MDA-MB-468, BT20 and HCC38; assay: Number of persister cells after EZH2i pre-treatment and 5-FU; format: cell-based, human; details: 10 days pre-treatment, then 5-FU for 21 days
Experimental: Cell lines, culture conditions and drug treatments. […] All cell lines were cultured in a humidified 5% CO2 atmosphere at 37° C., and were tested as mycoplasma negative. […] Cells were treated with 5 μM of 5-FU (Sigma, Ref: […]) alone or in combination with KDM6A/Bi or EZH2i for indicated days. […] Cell proliferation, doubling time and IC50. MDA-MB-468, HCC38 and BT20 cells were stained with Trypan Blue (Invitrogen, Ref: T10282) exclusion test, and counted using a Countess automated cell counter (Invitrogen, Ref: C10228) at indicated time of treatment (FIG. 4a and Extended FIG. 8a/d/f).

MDA-MB-468 cells = assay: Lineage barcode frequencies and diversity under 5-FU with EZH2i; format: cell-based, human; details: co-treatment with 5-FU, bulk lineage barcodes
Description: Lentivirus packaging and cell transduction. Lentivirus was produced by transfecting the barcode plasmids pRRL-CMV-GFP-BCv2Ascl and p8.9-QV and pVSVG into HEK293T cells as previously described^30. MDA-MB-468 cells from ATCC were infected at passage 11 with lentivirus produced from the barcode library (pRRL-CMV-GFP-BCv 2Ascl) which includes 18206 different barcodes of 20 bp of a random stretch, at a low multiplicity of infection (MOI 0.1) to minimize the number of cells marked by multiple barcodes. Three weeks after transduction, cells were sorted for GFP expression to select cells with barcode insertion, and used for drug treatment.
Bulk lineage barcode library preparation and sequencing. Lineage barcodes are recovered by isolating genomic DNA from cells of interest (NucleoSpin Tissue, Mini kit for DNA from cells and tissue, Macherey Nagel, Ref: 740952.50). From the isolated genomic DNA, barcodes are amplified with three nested PCR steps as decribed in^30 (see Extended Table 1 for primer sequence). In short, after a first specific PCR for the common region of the lineage barcodes, the amplified material was prepared for sequencing by addition of the illumina sequencing adaptaters and indexing and purification. Sequencing was done in order to obtain 50 reads, on average, per barcoded cell.
Single-cell lineage barcode extraction from 10× datasets. […] To avoid running scripts on all reads we: 1. used samtools to extract all unmapped reads from the 10× output bam file, 2. used awk to take reads with either a 3′ or 5′ 20 bp match to the constant flanking region of the barcode allowing one mismatch, 3. retained only reads with both a 10× cell barcode and 10× UMI. We then located the 20 bp match to one of the constant flanking regions allowing one mismatch (but filtered out reads where a mismatch was in the first or last base to ensure the barcode is at the expected position). We then further required a 4 bp exact match on the other side of the barcode, and then extracted the 20 bp viral barcode, read name, 10× cell barcode and 10× UMI.
To assign one viral barcode to each 10× cell barcode, we determined a consensus viral barcode for each UMI. For each position in the barcode we returned the most frequently observed base and the proportion of reads supporting this consensus. Barcodes associated with a 10× CB-UMI pair were filtered if the proportion of reads supporting a position was ≤0.5 at ≥3 positions. […]
Bulk barcode pre-processing. […] In brief, using R-3.4.0 (R Development Core Team (2019) http://www.R-project.org), raw reads were first filtered for perfect to the input index-and common-sequences using XCALIBR (https://github.com/NKI-GCF/xcalibr) and filtered against the barcode reference list. […]

H3K27me3, EZH2 = biological target: T1, H3K27me3, EZH2 (Homo sapiens, UniProt Q15910); assay: Western blotting of EZH2i-treated cells; format: cell-based; details: prior to chemotherapy treatment
T1 construct: endogenous in cells; host or cells: MDA-MB-468, HCC38 or BT20
T1 sequence (Q15910 whole entry): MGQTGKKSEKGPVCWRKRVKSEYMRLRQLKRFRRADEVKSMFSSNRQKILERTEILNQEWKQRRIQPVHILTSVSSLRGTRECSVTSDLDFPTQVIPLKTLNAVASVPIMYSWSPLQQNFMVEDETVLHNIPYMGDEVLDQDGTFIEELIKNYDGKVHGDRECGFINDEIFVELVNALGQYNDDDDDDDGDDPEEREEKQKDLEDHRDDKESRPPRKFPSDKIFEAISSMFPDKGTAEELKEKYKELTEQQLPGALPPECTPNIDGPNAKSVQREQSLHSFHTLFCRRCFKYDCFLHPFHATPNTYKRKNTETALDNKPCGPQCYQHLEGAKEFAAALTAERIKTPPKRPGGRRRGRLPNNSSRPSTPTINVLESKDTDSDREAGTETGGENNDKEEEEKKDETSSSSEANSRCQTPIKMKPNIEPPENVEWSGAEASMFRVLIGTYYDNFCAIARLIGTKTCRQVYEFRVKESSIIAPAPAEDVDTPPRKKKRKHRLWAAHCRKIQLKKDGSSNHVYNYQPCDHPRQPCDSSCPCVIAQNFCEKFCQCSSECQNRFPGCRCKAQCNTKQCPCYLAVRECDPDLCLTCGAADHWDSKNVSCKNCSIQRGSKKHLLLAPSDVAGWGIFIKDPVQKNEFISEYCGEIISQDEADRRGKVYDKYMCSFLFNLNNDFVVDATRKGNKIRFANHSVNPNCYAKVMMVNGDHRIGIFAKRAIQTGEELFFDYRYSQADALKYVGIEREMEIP
T1 sequence (O75530 whole entry partner): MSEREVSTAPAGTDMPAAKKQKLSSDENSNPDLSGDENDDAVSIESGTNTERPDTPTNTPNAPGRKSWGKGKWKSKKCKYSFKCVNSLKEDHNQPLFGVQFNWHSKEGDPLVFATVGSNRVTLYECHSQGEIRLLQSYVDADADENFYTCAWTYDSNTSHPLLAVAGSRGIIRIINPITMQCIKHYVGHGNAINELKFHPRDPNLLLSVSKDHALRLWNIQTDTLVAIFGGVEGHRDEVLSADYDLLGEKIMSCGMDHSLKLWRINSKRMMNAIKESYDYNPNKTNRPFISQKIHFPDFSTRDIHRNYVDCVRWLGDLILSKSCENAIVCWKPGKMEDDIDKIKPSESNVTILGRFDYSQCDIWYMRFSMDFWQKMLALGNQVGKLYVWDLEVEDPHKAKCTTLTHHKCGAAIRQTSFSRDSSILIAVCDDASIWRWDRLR
T1 sequence (Q15022 whole entry partner): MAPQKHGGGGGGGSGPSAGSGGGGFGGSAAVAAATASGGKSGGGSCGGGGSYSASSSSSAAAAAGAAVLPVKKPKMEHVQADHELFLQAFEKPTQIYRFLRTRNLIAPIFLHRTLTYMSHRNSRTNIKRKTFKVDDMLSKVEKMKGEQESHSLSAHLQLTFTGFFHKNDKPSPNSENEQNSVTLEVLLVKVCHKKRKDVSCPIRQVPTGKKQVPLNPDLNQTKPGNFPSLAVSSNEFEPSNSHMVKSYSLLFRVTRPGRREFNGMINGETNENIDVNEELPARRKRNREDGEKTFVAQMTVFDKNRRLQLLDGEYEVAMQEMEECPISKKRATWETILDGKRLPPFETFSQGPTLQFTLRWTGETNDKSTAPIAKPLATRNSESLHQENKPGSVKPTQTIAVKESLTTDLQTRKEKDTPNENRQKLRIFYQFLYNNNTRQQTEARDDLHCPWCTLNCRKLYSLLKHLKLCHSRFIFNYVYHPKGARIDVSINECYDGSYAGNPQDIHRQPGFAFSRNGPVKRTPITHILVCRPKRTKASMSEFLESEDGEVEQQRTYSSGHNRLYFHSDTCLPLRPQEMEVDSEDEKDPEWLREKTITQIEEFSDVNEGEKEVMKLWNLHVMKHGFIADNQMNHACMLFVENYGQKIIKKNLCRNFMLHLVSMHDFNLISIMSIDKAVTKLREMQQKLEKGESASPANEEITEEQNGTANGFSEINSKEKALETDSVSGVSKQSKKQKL
Experimental: Western blotting. In Extended FIG. 8b/e/g, DMSO- and EZH2i-treated cells were lysed at 95° C. for 10 minutes in Laemmli buffer (50 mM Tris-HCl [pH 6.8], 2% SDS, 5% glycerol, 2 mM DTT, 2.5 mM EDTA, 2.5 mM EGTA, 4 mM Sodium Orthovanadate, 20 mM Sodium Fluoride, protease inhibitors, phosphatase inhibitors) and proteins concentrations were measured using a Pierce BCA protein Assay Kit (Thermo Fisher Scientific, Ref: 23225/23227). 10 μg of proteins were then separated on a 4-15% Mini-PROTEAN TGX Stain-Free Gel (Bio-Rad, Ref: 4568085) at 160V. After transfer, the membrane was blocked for 1 h at room temperature in PBS pH 7.4 containing 0.1% Tween-20 and 1% milk (Regilait). Incubation anti-H3K27me3 (Dilution: 1:2000, Cell Signaling, Ref: 9733) or EZH2 (Dilution: 1:2000, Cell Signaling, Ref: 5246) or Tubulin (Dilution: 1:1000, Thermo Fisher Scientific, Ref: 31460) primary antibodies diluted in PBS pH 7.4, 0.1% Tween-20 were performed at 4° C. overnight.

BT20 and HCC38 = assay: Colony forming assay, 5-FU with KDM6A/Bi, additional TNBC cell lines; format: cell-based, human; details: BT20 and HCC38, 5-FU
Experimental: as §1, with “serum. All cell lines were cultured in a humidified 5% CO2 atmosphere at 37° C., and were tested as mycoplasma negative.” for “serum.”
(§2) Colony forming assay. TBNC cells were plated in 6 multi-well plates at a density of 200,000 cells per well and treated with the indicated drugs for 60 days (MDA-MB-468, FIG. 5a/b and Extended FIG. 9b) or 56 days (BT20) or 50 days (HCC38) (Extended FIG. 9). Cultures were incubated in humidified 37° C. incubators with an atmosphere of 5% CO2 in air, and treated plates were monitored for growth using a microscope. At the time of maximum foci formation, colony formation was evaluated after a staining with 0.5% Crystal Violet (Sigma, ref: C 3886).

tumors in mice = assay: Capecitabine and GSK-J4 treatment of mice, tumor volume and disease-free survival; format: in vivo
Experimental: FIG. 5c: Five mice were treated intraperitoneally with DMSO, five mice were treated intraperitoneally with GSK-J4 alone at a dose of 50 mg/kg, 5 d/week for 25 days. Twenty-five mice were treated orally with Capecitabine at a dose of 540 mg/kg, 5 d/week for 36 days and twenty-five mice were co-treated with Capecitabine and GSK-J4 for 36 days. Tumor volumes (mm3) were measured to follow recurrence. FIG. 5d: Disease-free survival was defined as the number of days between the observation of a complete response (relative tumor volume RTV compared to volume at onset of treatment<0.2) after the first round of Capecitabine treatment, and the appearance of a recurrent tumor (RTV>3). Statistical analysis was performed using a log-rank test.

MDA-MB-468 [5] = assay: Colony forming assay and persister cell count, 5-FU with KDM6A/Bi; format: cell-based, human
Experimental: as §1, with “serum. All cell lines were cultured in a humidified 5% CO2 atmosphere at 37° C., and were tested as mycoplasma negative.” for “serum.”
as §2

SMILES: O=c1[nH]cc(F)c(=O)[nH]1 [5-FU, Fluorouracil]
IC50 to 5-FU of resistant cells relative to untreated population [1]: over 4 fold
cells surviving drug insult (MDA-MB-468 [2]; MDA-MB-468, 5-FU, after 3 weeks): 0.01 % of the initial population
time until surviving cells started proliferating again under chemotherapy (MDA-MB-468 [2]; MDA-MB-468 persister cells under 5-FU): 10 to 15 days

SMILES: CCCCCOC(=O)Nc1nc(=O)n([C@@H]2O[C@H](C)[C@@H](O)[C@H]2O)cc1F [Capecitabine]
tumor response to first round of chemotherapy [3]: mice displayed a pathological complete response (pCR), but tumors eventually recurred

correlation scores between lineage frequencies in 5-FU and DMSO treated population (MDA-MB-468 cells): increased correlation scores
EZH2 protein levels (H3K27me3, EZH2): without perturbing EZH2 protein levels
H3K27me3 level (H3K27me3, EZH2): erasing H3K27me3
SMILES: CC[C@H](C)n1cc(C)c2c(C(=O)NCc3c(C)cc(C)[nH]c3=O)cc(-c3ccc(N4CCNCC4)nc3)cc21 [EZH2i-2]
number of persister cells [4]: increased the number of persister cells

SMILES: CCOC(=O)CCNc1cc(N2CCc3ccccc3CC2)nc(-c2ccccn2)n1 [GSK-J4]
confirmation of KDM6i effects on persister cells (BT20 and HCC38): confirmed
toxicity for the mice (tumors in mice; GSK-J4 50 mg/kg intraperitoneally): nor was toxic for the mice
tumor progression in absence of chemotherapy (tumors in mice; GSK-J4 alone, 50 mg/kg intraperitoneally): did not inhibit tumor progression
delay to recurrence (disease-free survival) (tumors in mice; in combination with Capecitabine versus Capecitabine alone, n=25 each, p=4.0e-2): significantly increased the delay to recurrence
effect when administered once persister cells have emerged (MDA-MB-468 [5]; added after onset of 5-FU rather than in combination): inefficient
number of persisters at day 21 (MDA-MB-468 [5]; co-treatment with 5-FU): decrease in the number of persisters
growth of persister cells under 5-FU at day 60 (MDA-MB-468 [5]; co-treatment with 5-FU, colony forming assay): completely abolished the growth of persister cells
effect on untreated cancer cells (MDA-MB-468 [5]; without 5-FU): no effect on untreated cancer cells

correlation scores between lineage frequencies in 5-FU and DMSO treated population (MDA-MB-468 cells): no effect on lineage frequencies
SMILES: CCCc1cc(C)n(C)c(=O)c1CN(C)C(=O)c1cc(-c2ccc(N3CCN(C(C)C)CC3)nc2)cc2c1cnn2C(C)C [UNC240034]
number of persister cells [4]: no effect
